Results as given in ChEMBL document CHEMBL2364262, “Structure-activity relationship data for chemical series of agonists of the motilin receptor (Supplementary Bioactivity Data for publication CHEMBL1141008)”.

Biological target: Motilin receptor (Homo sapiens, UniProt O43193)
Assay: SUPPLEMENTARY: Agonist activity at human recombinant motilin receptor expressed in CHO cells by calcium mobilization-based FLIPR assay. Same assay as CHEMBL942680
Format: functional, cell-based

Chain of Motilin receptor (O43193 whole entry): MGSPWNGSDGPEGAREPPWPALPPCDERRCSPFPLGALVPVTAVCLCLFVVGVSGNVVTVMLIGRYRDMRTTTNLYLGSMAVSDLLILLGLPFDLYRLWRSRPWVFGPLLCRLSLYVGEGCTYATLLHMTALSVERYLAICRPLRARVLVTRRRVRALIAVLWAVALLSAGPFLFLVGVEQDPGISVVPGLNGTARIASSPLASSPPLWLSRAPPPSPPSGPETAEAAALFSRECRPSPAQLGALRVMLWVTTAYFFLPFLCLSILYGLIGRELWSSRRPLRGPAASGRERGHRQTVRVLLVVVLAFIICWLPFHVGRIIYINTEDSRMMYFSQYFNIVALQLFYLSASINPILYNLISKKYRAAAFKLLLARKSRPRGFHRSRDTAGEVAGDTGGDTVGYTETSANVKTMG

| SMILES | EC50 |
| --- | --- |
| C[C@H]1CN(Cc2ccc(NS(=O)(=O)c3ccc(N4CCCCC4)nc3)cc2)CCN1 | 100 nM |
| Cc1nc(-c2ccc(F)cc2)ncc1C(=O)N(C)c1ccc(CN2CCN[C@@H](C)C2)cc1 | 1.58 nM |
| C[C@H]1CN(Cc2ccc(CC(=O)N3CCC(Oc4cccc(F)c4)CC3)cc2)CCN1 | 25.1 nM |
| C[C@H]1CN(Cc2ccc(N(C)C(=O)c3ccc(-c4ccc(F)cc4)cc3)cc2)CCN1 | 39.8 nM |
| C[C@H]1CN(Cc2ccc(NS(=O)(=O)c3ccc(-c4ccc(F)cc4)nc3)cc2C(F)(F)F)CCN1 | 1.58 nM |
| Cc1cc(N(C)C(=O)c2ccc(-c3cccc(F)c3)nc2)ccc1CN1CCN[C@@H](C)C1 | 0.251 nM |
| COc1cc(CC(=O)N2CCC(Nc3cccc(F)c3)CC2)ccc1CN1CCN[C@@H](C)C1 | 25.1 nM |
| C[C@H]1CN(Cc2ccc(N(C)C(=O)c3ccc(-c4cccc(F)c4)nc3)cc2F)CCN1 | 1.26 nM |
| C[C@@H]1CN(Cc2ccc(NS(=O)(=O)c3ccc(-c4ccc(F)cc4)nc3)cc2)C[C@H](C)N1 | 158 nM |
| C[C@H]1CN(Cc2ccc(CC(=O)N3CCC(Nc4ccc(F)c(F)c4)CC3)cc2)CCN1 | 7.94 nM |
| C[C@H]1CN(Cc2ccc(CC(=O)N3CCC(Nc4ccc(C#N)cc4)CC3)cc2)CCN1 | 31.6 nM |
| C[C@H]1CN(Cc2ccc(N(C)C(=O)c3ccc(Oc4ccc(F)cc4)nc3)c(F)c2)CCN1 | 3.16 nM |
| C[C@@H]1CN(Cc2ccc(CC(=O)N3CCC(Nc4ccc(F)c(F)c4)CC3)cc2)CCN1 | 12.6 nM |
| C[C@H]1CN(Cc2ccc(N(C)C(=O)c3cnc(-c4ccc(F)cc4)nc3)cc2)CCN1 | 5.01 nM |
| C[C@H]1CN(Cc2ccc(N(C)C(=O)c3ccc(-c4ccc(F)cc4)cn3)cc2)CCN1 | 7.94 nM |
| CC(C(=O)N1CCC(Nc2cccc(F)c2)CC1)c1ccc(CN2C[C@@H](C)N[C@@H](C)C2)cc1 (stereo partly specified) | 15.8 nM |
| C[C@@H]1CN(Cc2ccc(CC(=O)N3CCC(Nc4cccc(C#N)c4)CC3)cc2)CCN1 | 3.16 nM |
| C[C@@H]1CN(Cc2ccc(CC(=O)N3CCC(Oc4cccc(F)c4)CC3)cc2)CCN1 | 15.8 nM |
| C[C@H]1CN(Cc2ccc(N(C)C(=O)C3CCN(Cc4ccc(F)cc4)CC3)cc2)CCN1 | 7.94 nM |
| Cc1cc(NS(=O)(=O)c2ccc(-c3ccc(F)cc3)nc2)ccc1CN1CCN[C@@H](C)C1 | 1.58 nM |
| Cc1cc(N(C)C(=O)c2ccc(Oc3ccc(F)cc3)nc2)ccc1CN1CCN[C@@H](C)C1 | 0.251 nM |
| Cc1nc(-c2cccc(C#N)c2)ccc1C(=O)N(C)c1ccc(CN2CCN[C@@H](C)C2)cc1 | 1.58 nM |
| C[C@H]1CN(Cc2ccc(N(C)C(=O)c3ccc(Oc4cccc(F)c4)cc3)cc2)CCN1 | 2.51 nM |
| C[C@@H]1CN(Cc2ccn(-c3cccnc3N3CCC(Oc4ccccc4F)CC3)n2)C[C@H](C)N1 | 6.31 nM |

| SMILES | EC50 |
| --- | --- |
| CC(C)N(C(=O)c1ccc(-c2cccc(F)c2)nc1)c1ccc(CN2CCN[C@@H](C)C2)cc1 | 12.6 nM |
| C[C@H]1CN(Cc2ccc(N(C)C(=O)c3ccc(-c4ccccc4F)nc3)cc2)CCN1 | 5.01 nM |
| CCN(C(=O)c1ccc(Oc2ccc(F)cc2)nc1)c1ccc(CN2CCN[C@@H](C)C2)cc1 | 0.398 nM |
| Cc1nc(-c2cccc(F)c2)ccc1C(=O)N(C)c1ccc(CN2CCN[C@@H](C)C2)cc1 | 0.631 nM |
| C[C@@H]1CN(Cc2ccc(-c3cccnc3N3CCC(Nc4ccc(F)cc4)CC3)s2)C[C@H](C)N1 | 25.1 nM |
| C[C@@H]1CN(Cc2ccn(-c3cccnc3N3CCC(Oc4cccc(F)c4)CC3)n2)C[C@H](C)N1 | 2.51 nM |
| Cc1nc(-c2ccc(F)cc2)ccc1C(=O)N(C)c1ccc(CN2C[C@@H](C)N[C@@H](C)C2)cc1 | 0.398 nM |
| C[C@H]1CN(Cc2ccn(-c3cccnc3N3CCC(Oc4cccc(F)c4)CC3)n2)CCN1 | 0.794 nM |
| C[C@@H]1CN(Cc2ccn(-c3cccnc3N3CCC(Oc4ccc(F)cc4)CC3)n2)C[C@H](C)N1 | 1.26 nM |
| C[C@@H]1CN(Cc2ccn(-c3cccnc3N3CCC(Nc4ccc(F)cc4)CC3)n2)C[C@H](C)N1 | 2 nM |
| Cc1cc(N(C)C(=O)c2ccc(Oc3ccc(F)cc3)nc2)ncc1CN1CCN[C@@H](C)C1 | 2 nM |
| C[C@H]1CN(Cc2ccc(N(C)C(=O)c3ccc(-c4cccc(F)c4)cn3)cc2)CCN1 | 7.94 nM |
| C[C@H]1CN(Cc2ccc(N(C)C(=O)c3ccc(C(=O)c4ccc(C(F)(F)F)cc4)cc3)cc2)CCN1 | 20 nM |
| C[C@@H]1CN(Cc2ccc(CC(=O)N3CCC(Oc4ccc(C#N)cc4)CC3)cc2)CCN1 | 12.6 nM |
| C[C@H]1CN(Cc2ccc(N(C)C(=O)c3ccc(N4CCC(F)CC4)nc3)cc2)CCN1 | 79.4 nM |
| C[C@@H]1CN(Cc2ccc(N(C)C(=O)c3ccc(-c4ccc(F)cc4)nc3)cc2)C[C@H](C)N1 | 2 nM |
| C[C@H]1CN(Cc2ccc(N(C)C(=O)c3ccc(-c4cccc(F)c4)nc3)c(F)c2)CCN1 | 6.31 nM |
| COc1cccc(-c2ccc(C(=O)N(C)c3ccc(CN4CCN[C@@H](C)C4)cc3)nc2)c1 | 7.94 nM |
| COCCN(C(=O)c1ccc(-c2cccc(F)c2)nc1)c1ccc(CN2CCN[C@@H](C)C2)cc1 | 15.8 nM |
| C[C@@H]1CN(Cc2ccc(CCC(=O)N3CCC(Nc4cccc(F)c4)CC3)cc2)C[C@H](C)N1 | 39.8 nM |
| C[C@H]1CN(Cc2ccc(N(C)C(=O)c3ccc(Oc4cccc(C#N)c4)cn3)cc2)CCN1 | 2 nM |
| C[C@@H]1CN(Cc2ccc(CC(=O)N3CCC(Oc4ccc(F)cc4)CC3)cc2)CCN1 | 12.6 nM |
| C[C@H]1CN(Cc2ccc(N(C)C(=O)c3ccc(Oc4cccc(F)c4)cn3)cc2)CCN1 | 1 nM |
| C[C@H]1CN(Cc2ccc(N(C)C(=O)c3ccc(Oc4ccccc4F)nc3)cc2)CCN1 | 7.94 nM |

| SMILES | EC50 |
| --- | --- |
| C[C@H]1CN(Cc2ccc(N(C)C(=O)C3CCN(Cc4ccc(C#N)cc4)CC3)cc2)CCN1 | 63.1 nM |
| C[C@@H]1CN(Cc2ccc(-c3cccnc3S(=O)(=O)N3CCC(Nc4ccccc4F)CC3)cc2F)C[C@H](C)N1 | 20 nM |
| Cc1cc(NS(=O)(=O)c2cncc(-c3ccc(F)cc3)c2)ccc1CN1CCN[C@@H](C)C1 | 20 nM |
| C[C@H]1CN(Cc2ccc(N(C)C(=O)c3ccc(Oc4cccc(C#N)c4)nc3)cc2)CCN1 | 3.16 nM |
| C[C@@H]1CN(Cc2ccc(CC(=O)N3CCC(Nc4cccc(C(F)(F)F)c4)CC3)cc2)CCN1 | 2.51 nM |
| C[C@H]1CN(Cc2ccc(N(C)C(=O)c3ccc(-c4cccc(C#N)c4)nc3)cc2)CCN1 | 7.94 nM |
| C[C@H]1CN(Cc2ccc(-c3cccnc3C(=O)N3CCC(Nc4ccc(F)cc4)CC3)cc2)CCN1 | 1 nM |
| C[C@@H]1CN(Cc2ccc(C(C)(C)C(=O)N3CCC(Nc4cccc(F)c4)CC3)cc2)C[C@H](C)N1 | 25.1 nM |
| C[C@@H]1CN(Cc2ccc(CC(=O)N3CCC(Nc4ccc(C#N)cc4)CC3)cc2)CCN1 | 15.8 nM |
| C[C@H]1CN(Cc2ccc(N(C)C(=O)c3ccc(Oc4ccc(F)cc4)nc3)cc2Cl)CCN1 | 0.316 nM |
| C[C@H]1CN(Cc2ccc(CC(=O)N3CCC(Oc4ccc(F)cc4)CC3)cc2)CCN1 | 20 nM |
| CCN(C(=O)c1ccc(-c2cccc(F)c2)nc1)c1ccc(CN2CCN[C@@H](C)C2)cc1 | 0.794 nM |
| C[C@H]1CN(Cc2ccc(N(C)C(=O)c3ccc(Oc4ccccc4F)cc3)cc2)CCN1 | 5.01 nM |
| C[C@H]1CN(Cc2ccc(N(C)C(=O)C3CCN(Cc4cccc(F)c4)CC3)cc2)CCN1 | 5.01 nM |
| C[C@H]1CN(Cc2ccc(N(C)C(=O)c3ccc(Oc4ccc(F)cc4)nc3)nc2)CCN1 | 31.6 nM |
| COCCN(C(=O)c1ccc(Oc2ccc(F)cc2)nc1)c1ccc(CN2CCN[C@@H](C)C2)cc1 | 15.8 nM |
| C[C@H]1CN(Cc2ccc(N(C)C(=O)C3CCN(Cc4cccc(C#N)c4)CC3)cc2)CCN1 | 39.8 nM |
| C[C@H]1CN(Cc2ccc(N(C)C(=O)c3ccc(-c4cccc(C#N)c4)cn3)cc2)CCN1 | 39.8 nM |
| C[C@H]1CN(Cc2ccc(CC(=O)N3CCC(Nc4ccc(C(F)(F)F)cc4)CC3)cc2)CCN1 | 10 nM |
| C[C@H]1CN(Cc2ccc(N(C)C(=O)c3ccc(-c4cccc(F)c4)nc3)cc2)CCN1 | 1.26 nM |
| C[C@H]1CN(Cc2ccc(CC(=O)N3CCC(Nc4cccc(F)c4)CC3)cc2Cl)CCN1 | 5.01 nM |
| C[C@H]1CN(Cc2ccc(N(C)C(=O)c3ccc(-c4ccc(F)cc4)nc3)cc2)CCN1 | 1.58 nM |
| C[C@H]1CN(Cc2ccc(CC(=O)N3CCC(Nc4cccc(C(F)(F)F)c4)CC3)cc2)CCN1 | 6.31 nM |
